# According to EPA's ToxRefDB 2:
# What was measured:
# rat [1] = conditions: Subchronic oral toxicity in rodents, fischer, Gavage/Intubation, dose end: 14 week, group: systemic
# mouse [2] = conditions: Carcinogenicity, b6c3f1, Oral, Gavage/Intubation, dose end: 105 week, group: systemic
# mouse [3] = conditions: Subchronic oral toxicity in rodents, b6c3f1, Gavage/Intubation, dose end: 14 week, group: systemic
# rat [4] = conditions: Carcinogenicity, fischer, Oral, Gavage/Intubation, dose end: 104 week, group: systemic
# rat [5] = conditions: Combined chronic toxicity/carcinogenicity, fischer, Dermal, Topical, dose end: 2 year, group: systemic
# mouse [6] = conditions: Subchronic oral toxicity in rodents, b6c3f1, Dermal, Topical, dose end: 14 week, group: systemic
# rat [7] = conditions: Subchronic oral toxicity in rodents, fischer, Dermal, Topical, dose end: 14 week, group: systemic
# mouse [8] = conditions: Carcinogenicity; b6c3f1; Dermal; Topical; dose end: 2 year; group: systemic; systemic / pathology microscopic / skin / hyperplasia
# [9] = systemic / organ weight / kidney / relative to body weight
# [10] = systemic / organ weight / kidney / relative to body weight + systemic / clinical chemistry / alanine aminotransferase (alt/sgpt) / alanine …
# [11] = systemic / pathology microscopic / kidney / glomerulonephropathy + systemic / pathology microscopic / liver / [other] + systemic / pathology…
# [12] = systemic / pathology microscopic / liver / clear cell focus + systemic / pathology microscopic / nose / degeneration + systemic / pathology …
# [13] = systemic / organ weight / liver / absolute + systemic / organ weight / liver / relative to body weight
# [14] = systemic / pathology microscopic / liver / basophilic focus + systemic / pathology microscopic / liver / fatty change + systemic / pathology…
# [15] = systemic / pathology microscopic / skin / hyperplasia
# [16] = systemic / in life observation / clinical signs / skin discoloration + systemic / organ weight / liver / absolute + systemic / organ weight…
smiles,measurement,setting,value
CC(C)=C1CC[C@@H](C)CC1=O [R-(+)-Pulegone],LEL,rat [1]; [9],9.38 mg/kg/day
same,NEL,rat [1]; [9],< 9.38 mg/kg/day
same,LOAEL,rat [1]; [10],> 150 mg/kg/day
same,NOAEL,rat [1]; [10],≥ 150 mg/kg/day
same,LOAEL,mouse [2]; [11],75 mg/kg/day
same,NOAEL,mouse [2]; [11],37.5 mg/kg/day
same,LEL,mouse [2]; [12],37.5 mg/kg/day
same,NEL,mouse [2]; [12],< 37.5 mg/kg/day
same,LEL,mouse [3]; systemic / organ weight / liver / absolute,18.8 mg/kg/day
same,LOAEL,mouse [3]; [13],> 150 mg/kg/day
same,NEL,mouse [3]; [13],9.38 mg/kg/day
same,NOAEL,mouse [3]; [13],≥ 150 mg/kg/day
same,LOAEL,rat [4]; systemic / pathology microscopic / kidney / glomerulonephropathy + systemic / pathology microscopic / liver / basophilic focus + systemic / …,37.5 mg/kg/day
same,LEL,rat [4]; [14],18.8 mg/kg/day
same,NEL,rat [4]; [14],< 18.8 mg/kg/day
Cc1ccc(S(=O)(=O)[O-])cc1C.[Na+] [Sodium xylenesulfonate],LEL,rat [5]; [15],60 mg/kg/day
same,LOAEL,rat [5]; [15],120 mg/kg/day
same,NEL,rat [5]; [15],< 60 mg/kg/day
same,NOAEL,rat [5]; systemic / pathology microscopic / skin / hyperplasia + systemic / in life observation / clinical signs / [other],60 mg/kg/day
same,LEL,mouse [6]; [15],170 mg/kg/day
same,LOAEL,mouse [6]; [15],1300 mg/kg/day
same,NEL,mouse [6]; [15],60 mg/kg/day
same,NOAEL,mouse [6]; systemic / pathology microscopic / skin / hyperplasia + systemic / in life observation / body weight / body weight gain,440 mg/kg/day
same,NEL,rat [7]; systemic / in life observation / clinical signs / skin discoloration,800 mg/kg/day
same,LOAEL,rat [7]; [16],> 500 mg/kg/day
same,NOAEL,rat [7]; [16],≥ 500 mg/kg/day
same,LEL,mouse [8],364 mg/kg/day
same,LOAEL,mouse [8],364 mg/kg/day
same,NEL,mouse [8],182 mg/kg/day
same,NOAEL,mouse [8],182 mg/kg/day
